# Patent US20240425457A1, “COMPOSITIONS AND METHODS FOR SUPPRESSING AND/OR TREATING METABOLIC DISEASES AND/OR A CLINICAL CONDITION THEREOF” (CK Biotech Inc., priority 2018, published 2024)
# “Also recorded” adds a separate entry of the source. Read-outs that look alike come from different tables or passages of the source.
# What was measured:
# CXXC5-DVL interaction [1] = molecular target: T1, CXXC5-DVL interaction (Homo sapiens, UniProt O14640); assay: in vitro CXXC5-DVL PPI inhibition screening assay (FITC-tagged PTD-DBMP on DVL-PDZ, fluorescence); type: binding; conditions: for inhibition at 30 µM: read-out: CXXC5-DVL inhibitory activity (%)
# T1 sequence (O14640 251-323 limits assumed): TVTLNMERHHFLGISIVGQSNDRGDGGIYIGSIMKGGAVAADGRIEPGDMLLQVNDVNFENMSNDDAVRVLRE
# Method: Screening for compounds that inhibit the CXXC5-DVL interaction. […] CELL. DEATH. DIFFER. […] After the addition of 10 μM FITC-tagged PTD-DBMP to each well, each compound in the chemical library or control (DMSO) was treated to the well at a final concentration of 30 μM. The fluorescence intensity was measured using a Fluorstar Optima microplate reader (BGM Lab Technologie, Ortenberg, Germany) and normalized as follows: “(‘compounds-treated group’−‘blank’)/(‘DMSO-treated control’−‘blank’)*100”.
# HFD-induced obese mice = assay: HFD-induced obese mice, oral administration during 16 weeks of HFD; type: in vivo; conditions: HFD 16 weeks, 25 mpk oral
# Method: Anti-obesity effects of […], a small molecule […] inhibitor. Referring now to FIG. 34, C57BL/6N mice were fed HFD for 16 weeks with or without oral administration of 25 mpk […] or Orlistat. Orlistat is an anti-obesity drug that is thought to act by limiting the absorption of fats from the diet (e.g., a lipase inhibitor). […] Referring now to FIG. 35, The C57BL/6N mice were grown with HFD for 16 weeks with or without oral administration of 25 mpk of […], […], and I3O. […] The increase in adipocyte cell sizes and enhancement of inflammation (evaluated by crown like structures; blue; FIG. 35B) were suppressed by treatment with […] in the HFD mice.
# HFD-fed mice = assay: HFD-induced obesity/diabetes mice, 5-day oral courses at weeks 8/9 and 12; type: in vivo; conditions: HFD mice; for fasting glucose level / persistence of fasting glucose control after end of treatment: p.o. daily 5 days at weeks 8/9 and 12; for fasting glucose level: A3334, A3051, I3O 25, sitagliptin 50, metformin 100 mg/kg; for levels of GTT/ITT, total cholesterol, fasting glucose, triglyceride, FFAs in serum: A3334 25, metformin 100, sitagliptin 50 mpk (FIG. 38B-38F); for persistence of fasting glucose control after end of treatment: A3334 25, sitagliptin 50, metformin 100 mg/kg
# Text: Animals. The generation of Cxxc5^−/− mice has been described previously. Cxxc5 heterozygous mice were intercrossed for four generations to obtain littermate wild-type and Cxxc5^−/− mice and were maintained on a C57BL/6 background. Six-week-old Cxxc5^+/+ and Cxxc5^−/− mice were fed HFD for 8 weeks. Wild-type male C57BL/6 mice (KOATECH, Seoul, Korea) were fed HFD consisting of 60% calories from fat (Research Diet, D12492) for 8 weeks. To validate that the insulin resistance mouse model was successfully established, fasting glucose levels were assessed with a One Touch Ultra glucometer (LifeScan). Subsequently, each HFD-fed mouse with a fasting glucose level higher than 16.7 mmol/L was orally administered A3334 (25 mg kg^−1), sitagliptin (50 mg kg^−1), or metformin (100 mg kg^−1) each day for 5 days at weeks 8 and 12. After the removal of the drugs, mice were maintained for 3 weeks on the HFD. To monitor pancreas regeneration, six-week-old Cxxc5^+/+ and Cxxc5^−/− mice were fed an HFD as above. After dietary treatment for 4 weeks, the mice were intraperitoneally injected with STZ (50 mg/kg/d) for 1 week and the control group were injected with saline. After 2 weeks, Cxxc5^+/+ mice were administered A3334 (25 mg kg^−1) and sitagliptin (50 mg kg^−1) per day by oral gavage for 4 weeks. For GTT or ITT, mice were injected with D-glucose (1.5 g/kg body weight) after overnight starvation or human insulin (0.75 units/kg body weight) after 4 h starvation, respectively. Tail blood was drawn at 0, 15, 30, 60, 120, 180 min intervals and blood glucose level was measured with a One Touch Ultra glucometer. All mice were maintained under temperature-controlled and light-controlled (standard 12 h light/dark cycle) conditions and provided with food and water ad libitum. All protocols were reviewed and approved by the Institutional Review Board of Severance Hospital, Yonsei University College of Medicine (09-013).
# Blood chemistry. Total blood of mice was collected by cardiac puncture after fasting. The blood was allowed to clot for 30 min and was then centrifuged for 10 min at 1,000×g to obtain supernatant to measure metabolic parameters. ELISA assay kits were used to assess serum insulin (Millipore), serum FFA (Cayman Chemical), serum adiponectin (ABclonal). The insulin function test was evaluated by HOMA-IR and was calculated as fasting plasma glucose (m mol/l)×fasting serum insulin (mU/l)/22.5. Serum chemistry variables included total cholesterol, HDL-cholesterol, glucose, TG, ALT, AST, ALP, Ca, and Mg concentration. The calibration of serum parameters was performed using the quality control card supplied with the FUJI DRI-CHEM slides whenever slides from a new lot were used. […]
# Hematoxylin and eosin (H&E) staining. Dissected tissues were fixed in 4% neutral paraformaldehyde and embedded in paraffin. The paraffin sections were cut at a thickness of 4 μm and subjected to H&E staining. The adipocyte cell size was measured in 20 randomly chosen microscopic areas from 3 independent animals using a Nikon bright-field optical microscope (Nikon TE-2000U). The average adipocyte size was determined using Image J software. […]
# Metabolic monitoring and body composition. Metabolic performance (energy intake and energy expenditure) was studied using a PHENOMASTER automated combined indirect calorimetry system (TSE system GmBH). The mice were first acclimated for 24 h in a metabolic chamber and were provided with food and water. They were then subsequently evaluated for 3 days to measure oxygen consumption (VO2), carbon dioxide production (VCO2), ambulatory counts, and respiratory exchange ratio. An LF50 body composition analyzer (Bruker) was used to determine body composition (lean body mass and total body fat) of the mice. The temperature for these studies remained at 22° C., with a 12 h light/dark cycle. Standard in-house software was used for energy expenditure.
# Quantitative real-time polymerase chain reaction (PCR). […]
# MCD-induced NASH mice = assay: MCD diet-induced NASH mice; type: in vivo; conditions: MCD diet 7 weeks, then 25 mg/kg daily oral gavage 3 weeks
# Method: NASH study. Eight-week-old wild-type male C57BL/6N mice (KOATECH, Seoul, Korea) were fed on the methionine-choline deficient (MCD) diet for 7 weeks, followed by treatment with vehicle, A3334, A3051, or I3O of (25 mg kg^−1) sitagliptin (25 mg kg^−1) for another 3 weeks via daily oral gavage.
# Collagen staining. 4 µm-liver tissues sections were stained using two common collagen staining methods. For Masson's trichrome staining, slides were fixed in Bouin's solution for 1 h. After incubation in Weigert's iron hematoxylin solution for 10 min, the slides were stained with Biebrich Scarlet-Acid Fuchsin and Aniline blue for 5 min. The collagen fibers were stained blue and the nuclei were stained black. For picrosirius red staining, sections were stained with Weigert's solution for 8 min and picrosirius red for 1 h. The collagen fibers were stained red with blue nuclei.
# Wnt/β-catenin signaling = Wnt/β-catenin signaling (TOPFlash) reporter luciferase assay in HEK293-TOP cells; type: cell-based
# Method: Luciferase reporter assay. HEK293-TOP cells were seeded in 24-well plates. Cells were treated with A3334 at a concentration of 1, 5, and 10 μM for 24 h. Total cell lysates were extracted with 35 μl of 5× Reporter Lysis Buffer per well according to the manufacturer's instructions (Promega). A total of 35 μl of luciferin was added and luciferase activity was measured using a Fluorstar Optima microplate reader.
# Wnt/β-catenin signaling reporter luciferase assay. HEK293-TOP cells were seeded were seeded in 96-well plates at a density of 2.5×10^4 cells per well. Cells were treated with individual chemicals at a concentration of 1, 5, 10 µM for 24 h. Total cell lysates were extracted with 25 µl of 5× Reporter Lysis Buffer per well according to the manufacturer's instruction (Promega, Madison, WI). Luciferin (25 µl) was added and luciferase activity was measured using FLUOSTAR (BMG labtech, Offenburg, Germany).
# CXXC5-DVL interaction [2] = molecular target: T1, CXXC5-DVL interaction; assay: Dvl-CXXC5 in vitro binding assay, (PTD-DBMP)-(PZD-DVL), concentration dependent; conditions: FIG. 33A-33C; unit inferred; read-out: IC50, in vitro (PTD-DBMP)-(PZD-DVL) binding analyses
structure (smiles),measurement,setting,value
COc1ccc(C)cc1/N=N/c1ccc(O)c2nc(/C=N/O)ccc12 [Compound 1],inhibition at 30 µM,CXXC5-DVL interaction [1]; 30 μM,85.2%
COc1ccc(C2CC(C(F)(F)F)n3ncc(C(=O)O)c3N2)cc1OC (stereo not shown) [Compound 2],inhibition at 30 µM,CXXC5-DVL interaction [1]; 30 μM,90.6%
Cc1cc(C)c2c(O)nc(SCC(=O)c3ccc(O)c(O)c3)nc2n1 [Compound 3],inhibition at 30 µM,CXXC5-DVL interaction [1]; 30 μM,88.2%
COC(=O)C1=C(C)N/C(=C/c2cc(C)n(-c3ccccc3F)c2C)C1=O [Compound 4],inhibition at 30 µM,CXXC5-DVL interaction [1]; 30 μM,87.6%
O=C(O)C1Sc2[nH]c(=O)sc2C2c3cc(Br)cc(Br)c3OC(=O)C12 (stereo not shown) [Compound 5],inhibition at 30 µM,CXXC5-DVL interaction [1]; 30 μM,90.5%
CCN(CC)S(=O)(=O)c1ccc(OC)c(Nc2cc(-c3ccccc3)nc(C)n2)c1 [Compound 6],inhibition at 30 µM,CXXC5-DVL interaction [1]; 30 μM,58.2%
COc1ccc(C2CC(=O)C3=C(C2)Nc2onc(C)c2C3c2ccc(O)c(O)c2)cc1OC (stereo not shown) [Compound 7],inhibition at 30 µM,CXXC5-DVL interaction [1]; 30 μM,90.9%
CN1CCc2cc(O)cc3c2[C@H]1Cc1ccc(O)c(O)c1-3 [Compound 9],inhibition at 30 µM,CXXC5-DVL interaction [1]; 30 μM,89.4%
NC(Cc1cc(O)c(O)cc1O)C(=O)O (stereo not shown) [Compound 10],inhibition at 30 µM,CXXC5-DVL interaction [1],90.3%
O=c1cc(O)cc(/C=C/c2ccc(O)c(O)c2)o1 [Compound 11],inhibition at 30 µM,CXXC5-DVL interaction [1]; 30 μM,90%
O=c1c(O)c(-c2cc(O)c(O)c(O)c2)oc2cc(O)cc(O)c12 [Compound 13],inhibition at 30 µM,CXXC5-DVL interaction [1]; 30 μM,85.2%
CC(N)(Cc1ccc(O)c(O)c1)C(=O)O (stereo not shown) [Compound 14],inhibition at 30 µM,CXXC5-DVL interaction [1]; 30 μM,85.2%
O=c1c(O)c(-c2ccc(O)cc2O)oc2cc(O)cc(O)c12 [Compound 15],inhibition at 30 µM,CXXC5-DVL interaction [1]; 30 μM,85.4%
CN(C)c1ccc(O)c2c1C[C@H]1C[C@H]3[C@H](N(C)C)C(O)=C(C(N)=O)C(=O)[C@@]3(O)C(O)=C1C2=O [Compound 16],inhibition at 30 µM,CXXC5-DVL interaction [1],87.9%
Oc1cc(O)cc(/C=C/c2ccc(O)c(O)c2)c1 [Compound 17],inhibition at 30 µM,CXXC5-DVL interaction [1]; 30 μM,85.2%
O=C(OCCN1CCOCC1)C1(c2ccccc2)CCCCC1 [Compound 18],inhibition at 30 µM,CXXC5-DVL interaction [1]; 30 μM,86.8%
"O=C1Nc2ccccc2/C1=C1/Nc2ccccc2/C1=N\O [Compound I3O, Indirubin-3′-oxime, reference compound]",inhibition of CXXC5-DVL interaction (in words),CXXC5-DVL interaction [1],identified as initial hits
same,inhibition at 30 µM,CXXC5-DVL interaction [1]; 30 μM,89%
same,inhibition of CXXC5-DVL interaction (in words),CXXC5-DVL interaction [1]; listed as #12,repeatedly identified as CXXC5-DVL inhibitors
same,adipocyte cell size and inflammation (crown like structures),HFD-induced obese mice,"showed reduction in adipocyte size and anti-inflammatory effects, but those effects were lower when compared to that of the A3334 treatment"
same,fasting glucose level,HFD-fed mice,"also reduced fasting glucose. However, effects of A3051 and I3O is similar to or little bit weaker than SITA"
same,hepatosteatosis (H&E),MCD-induced NASH mice,"also reduced hepatosteatosis, but revealed only marginal effects compared to A3334"
same,Wnt/β-catenin (TOPFlash) reporter activity,Wnt/β-catenin signaling,showed effectiveness in the activation of Wnt/β-catenin pathway
same,IC50,CXXC5-DVL interaction [2],98.9 nM
"CN(C)C(=N)N=C(N)N [metformin, reference compound]","serum ALT, AST, FFA (and TG)",HFD-fed mice,increased by metformin
same,"levels of GTT/ITT, total cholesterol, fasting glucose, triglyceride, FFAs in serum",HFD-fed mice,weaker than those of A3333
same,persistence of fasting glucose control after end of treatment,HFD-fed mice,this prolonged effect was not shown; also recorded: showed an increased fasting glucose level after their second application
same,fasting glucose level,HFD-fed mice,reduced similarly by treatment with all of these compounds at initial applications
"N[C@@H](CC(=O)N1CCn2c(nnc2C(F)(F)F)C1)Cc1cc(F)c(F)cc1F [sitagliptin, reference compound]",mRNA of M1 and M2 macrophage marker genes in epiWAT,HFD-fed mice,did not significantly change the expression of inflammation or the Wnt/β-catenin signaling target genes
same,"serum ALT, AST, FFA (and TG)",HFD-fed mice,weakly reduced by SITA even at a higher concentration
same,"levels of GTT/ITT, total cholesterol, fasting glucose, triglyceride, FFAs in serum",HFD-fed mice,weaker than those of A3333
same,"hepatic steatosis (lipid droplets, fatty liver, hepatic TG)","HFD-fed mice; H&E, Oil Red O",exhibited only a marginal effect
same,Wnt/β-catenin target genes and lipogenesis/inflammation genes in white adipose tissue,HFD-fed mice; mRNA,did not significantly change the expression of inflammation or the Wnt/β-catenin signaling target genes
same,lipogenesis and gluconeogenesis genes in liver,HFD-fed mice; mRNA,"reduced by both A3334 and SITA, but A3334 showed better effectiveness"
same,persistence of fasting glucose control after end of treatment,HFD-fed mice,this prolonged effect was not shown; also recorded: showed an increased fasting glucose level after their second application
same,fasting glucose level,HFD-fed mice,reduced similarly by treatment with all of these compounds at initial applications
same,hepatosteatosis (H&E),MCD-induced NASH mice,"also reduced hepatosteatosis, but revealed only marginal effects compared to A3334"
